What was measured:
[1] = molecular target: T1, hPTHR1 (Homo sapiens, UniProt Q03431); assay: cAMP induction; type: cell-based; settings: Table 1; ratio of cAMP EC50 values, hPTHR1, GP2.3 cells
T1 sequence (Q03431 27-593): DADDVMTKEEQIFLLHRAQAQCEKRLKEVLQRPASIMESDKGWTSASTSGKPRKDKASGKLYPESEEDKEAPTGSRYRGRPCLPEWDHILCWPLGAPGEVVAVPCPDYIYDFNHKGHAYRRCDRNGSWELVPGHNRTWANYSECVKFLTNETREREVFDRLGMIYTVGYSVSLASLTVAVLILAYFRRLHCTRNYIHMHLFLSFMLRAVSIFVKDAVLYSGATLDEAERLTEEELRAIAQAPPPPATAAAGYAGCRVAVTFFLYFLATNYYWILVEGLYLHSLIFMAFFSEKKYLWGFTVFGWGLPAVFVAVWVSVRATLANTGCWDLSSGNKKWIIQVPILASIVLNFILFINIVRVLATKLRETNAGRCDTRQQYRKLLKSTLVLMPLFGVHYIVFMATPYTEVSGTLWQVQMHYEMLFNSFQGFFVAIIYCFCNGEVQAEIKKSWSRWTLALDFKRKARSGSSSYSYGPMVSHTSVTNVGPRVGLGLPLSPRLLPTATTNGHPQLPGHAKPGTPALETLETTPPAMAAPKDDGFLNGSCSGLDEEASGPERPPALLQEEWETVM

[2] = tested on: R0 conformation of the human PTHR1; settings: cited from earlier work
[3] = tested on: CD1 mice; settings: subcutaneous injection; cited from earlier work

Derivative EC50/PTH(1-34) EC50 [1]: 4.2
Substance: M-PTH(1-34) [Peptide 27]
binding to the R0 state of PTHR1, rank in words, earlier studies [2]: binds even more tightly than does 1
duration of calcemic effect in mice, earlier studies [3]: long-lasting calcemic effect

From PMC6016400 (Journal of medicinal chemistry, 2017)
